From the NIST ThermoML archive (doi:10.1016/j.jct.2014.07.013)
± gives the expanded uncertainty stated by the source.

Settings: Liquid, Closed cell (Static) method

For `FC(F)(F)I` [trifluoroiodomethane], the “vapor or sublimation pressure” value (258.15 K) was 133 ± 1 kPa, the “vapor or sublimation pressure” value (263.15 K) was 160.4 ± 1 kPa and the “vapor or sublimation pressure” value (273.15 K) was 228.4 ± 1.1 kPa. The “vapor or sublimation pressure” value (283.15 K) was 316.5 ± 1.1 kPa.
With `CCC` [propane] the “vapor or sublimation pressure” value (258.15 K) was 291.6 ± 1.1 kPa, the “vapor or sublimation pressure” value (263.15 K) was 345.3 ± 1.1 kPa and the “vapor or sublimation pressure” value (273.15 K) was 474.5 ± 1.2 kPa. For the same compound, the “vapor or sublimation pressure” value (283.15 K) was 636.8 ± 1.4 kPa.
